From PMC10882719 (Frontiers in Neuroscience, 2024)
Where two headings read alike, the source gives them in different places.

Tests used:
Type in all cases: cell-based
[1] = biological target: T1, 168 GPCRs (Homo sapiens, UniProt P35346); conditions: SSTR5
T1 construct: host or cells: PathHunter cell lines

[2] = biological target: T2, 168 GPCRs (Homo sapiens, UniProt P25106)
T2 construct: host or cells: PathHunter cell lines

[3] = biological target: T3, 168 GPCRs (Homo sapiens, UniProt P08173)
T3 construct: host or cells: PathHunter cell lines
T3 sequence (P08173 1-479): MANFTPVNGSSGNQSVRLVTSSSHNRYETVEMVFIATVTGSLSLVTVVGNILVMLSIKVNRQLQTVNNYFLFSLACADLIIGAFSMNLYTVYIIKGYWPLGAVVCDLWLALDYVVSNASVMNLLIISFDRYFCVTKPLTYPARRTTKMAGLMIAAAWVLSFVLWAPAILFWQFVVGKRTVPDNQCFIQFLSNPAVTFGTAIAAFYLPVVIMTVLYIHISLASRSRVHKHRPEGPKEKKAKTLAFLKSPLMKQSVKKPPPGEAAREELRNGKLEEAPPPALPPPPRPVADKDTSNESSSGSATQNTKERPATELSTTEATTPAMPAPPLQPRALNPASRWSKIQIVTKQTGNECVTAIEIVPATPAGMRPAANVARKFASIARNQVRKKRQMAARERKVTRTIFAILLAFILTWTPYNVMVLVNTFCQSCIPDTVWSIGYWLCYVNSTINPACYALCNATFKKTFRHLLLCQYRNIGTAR

[4] = biological target: T4, 168 GPCRs (Homo sapiens, UniProt P41143); conditions: OPRD1
T4 construct: host or cells: PathHunter cell lines

[5] = biological target: T5, 168 GPCRs (Homo sapiens, UniProt P47898); conditions: HTR5A
T5 construct: host or cells: PathHunter cell lines

[6] = biological target: T6, 168 GPCRs (Homo sapiens, UniProt P49683); conditions: PRLHR
T6 construct: host or cells: PathHunter cell lines
T6 sequence (P49683 1-370): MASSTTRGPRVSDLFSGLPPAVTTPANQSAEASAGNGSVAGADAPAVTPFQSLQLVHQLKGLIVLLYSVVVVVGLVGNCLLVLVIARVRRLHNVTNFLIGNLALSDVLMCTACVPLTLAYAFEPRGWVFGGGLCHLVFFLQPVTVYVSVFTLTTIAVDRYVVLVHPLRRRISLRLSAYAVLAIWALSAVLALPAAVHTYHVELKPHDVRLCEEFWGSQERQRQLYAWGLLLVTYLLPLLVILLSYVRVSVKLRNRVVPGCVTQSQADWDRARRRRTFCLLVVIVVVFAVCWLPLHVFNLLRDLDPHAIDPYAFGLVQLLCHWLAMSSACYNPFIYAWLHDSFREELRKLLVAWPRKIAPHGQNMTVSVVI

[7] = biological target: T7, 168 GPCRs (Homo sapiens, UniProt P47872); conditions: SCTR
T7 construct: host or cells: PathHunter cell lines

[8] = biological target: T8, 168 GPCRs (Homo sapiens, UniProt P08588)
T8 construct: host or cells: PathHunter cell lines

[9] = biological target: T9, 168 GPCRs (Homo sapiens, UniProt P30411)
T9 construct: host or cells: PathHunter cell lines
T9 sequence (P30411 1-391): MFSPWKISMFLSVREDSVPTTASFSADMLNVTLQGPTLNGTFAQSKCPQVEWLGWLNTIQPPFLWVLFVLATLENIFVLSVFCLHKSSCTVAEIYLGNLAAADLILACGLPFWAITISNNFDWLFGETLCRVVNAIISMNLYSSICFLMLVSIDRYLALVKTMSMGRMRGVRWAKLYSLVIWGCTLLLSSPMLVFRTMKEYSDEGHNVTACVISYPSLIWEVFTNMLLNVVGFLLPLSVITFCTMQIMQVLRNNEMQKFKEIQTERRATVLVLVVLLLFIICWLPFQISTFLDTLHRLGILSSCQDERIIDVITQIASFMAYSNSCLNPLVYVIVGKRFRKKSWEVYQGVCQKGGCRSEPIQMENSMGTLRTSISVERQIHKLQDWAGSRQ

T1 sequence (P35346 whole entry): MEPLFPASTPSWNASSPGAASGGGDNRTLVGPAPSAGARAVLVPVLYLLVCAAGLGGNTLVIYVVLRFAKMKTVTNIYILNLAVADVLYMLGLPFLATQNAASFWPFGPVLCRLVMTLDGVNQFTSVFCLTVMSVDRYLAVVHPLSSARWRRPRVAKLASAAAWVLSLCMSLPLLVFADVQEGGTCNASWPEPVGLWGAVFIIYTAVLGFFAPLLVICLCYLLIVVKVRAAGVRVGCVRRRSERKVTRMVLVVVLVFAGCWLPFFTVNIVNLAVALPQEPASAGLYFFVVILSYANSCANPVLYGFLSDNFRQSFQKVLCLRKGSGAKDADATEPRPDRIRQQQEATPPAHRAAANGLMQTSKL
T4 sequence (P41143 whole entry): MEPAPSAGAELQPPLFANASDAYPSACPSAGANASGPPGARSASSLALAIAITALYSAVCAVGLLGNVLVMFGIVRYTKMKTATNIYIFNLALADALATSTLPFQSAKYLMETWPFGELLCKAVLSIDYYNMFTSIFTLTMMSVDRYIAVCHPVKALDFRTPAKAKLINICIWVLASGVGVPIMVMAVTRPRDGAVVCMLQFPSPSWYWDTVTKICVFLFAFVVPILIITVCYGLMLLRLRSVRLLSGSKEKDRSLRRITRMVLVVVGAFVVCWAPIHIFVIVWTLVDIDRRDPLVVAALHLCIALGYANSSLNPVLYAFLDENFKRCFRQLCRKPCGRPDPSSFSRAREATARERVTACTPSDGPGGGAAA
T8 sequence (P08588 whole entry): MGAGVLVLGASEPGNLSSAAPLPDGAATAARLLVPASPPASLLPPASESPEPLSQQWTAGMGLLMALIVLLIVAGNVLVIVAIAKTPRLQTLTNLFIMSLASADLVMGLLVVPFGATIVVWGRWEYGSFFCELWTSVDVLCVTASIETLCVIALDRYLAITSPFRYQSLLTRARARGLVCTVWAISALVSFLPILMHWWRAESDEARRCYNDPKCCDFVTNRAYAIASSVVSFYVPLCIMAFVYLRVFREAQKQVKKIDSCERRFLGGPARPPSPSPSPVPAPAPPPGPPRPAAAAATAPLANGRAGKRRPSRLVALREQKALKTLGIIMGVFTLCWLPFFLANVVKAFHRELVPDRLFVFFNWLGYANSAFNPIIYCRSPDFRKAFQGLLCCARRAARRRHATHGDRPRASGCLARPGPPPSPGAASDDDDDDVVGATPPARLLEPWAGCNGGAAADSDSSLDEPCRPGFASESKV
T7 sequence (P47872 23-440): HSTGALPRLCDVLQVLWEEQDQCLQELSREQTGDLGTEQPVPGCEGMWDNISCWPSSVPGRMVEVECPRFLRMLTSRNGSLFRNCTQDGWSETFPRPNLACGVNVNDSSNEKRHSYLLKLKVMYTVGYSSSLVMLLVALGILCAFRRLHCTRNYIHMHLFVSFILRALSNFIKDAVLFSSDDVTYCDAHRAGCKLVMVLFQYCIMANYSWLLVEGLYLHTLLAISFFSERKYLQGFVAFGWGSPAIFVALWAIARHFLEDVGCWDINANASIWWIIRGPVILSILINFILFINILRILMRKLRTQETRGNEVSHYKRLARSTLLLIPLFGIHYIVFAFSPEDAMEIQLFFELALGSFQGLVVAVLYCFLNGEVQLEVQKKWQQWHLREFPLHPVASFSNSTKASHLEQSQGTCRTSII
T2 sequence (P25106 whole entry): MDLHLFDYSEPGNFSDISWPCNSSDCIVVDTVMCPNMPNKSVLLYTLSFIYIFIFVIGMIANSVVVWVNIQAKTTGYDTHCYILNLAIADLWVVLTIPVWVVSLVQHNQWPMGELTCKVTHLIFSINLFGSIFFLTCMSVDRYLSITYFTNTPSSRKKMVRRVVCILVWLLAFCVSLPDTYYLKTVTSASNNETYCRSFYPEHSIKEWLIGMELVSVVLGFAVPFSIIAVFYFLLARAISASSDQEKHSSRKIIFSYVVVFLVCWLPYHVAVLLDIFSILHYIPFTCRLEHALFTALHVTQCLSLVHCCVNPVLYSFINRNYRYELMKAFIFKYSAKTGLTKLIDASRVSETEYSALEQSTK
T5 sequence (P47898 whole entry): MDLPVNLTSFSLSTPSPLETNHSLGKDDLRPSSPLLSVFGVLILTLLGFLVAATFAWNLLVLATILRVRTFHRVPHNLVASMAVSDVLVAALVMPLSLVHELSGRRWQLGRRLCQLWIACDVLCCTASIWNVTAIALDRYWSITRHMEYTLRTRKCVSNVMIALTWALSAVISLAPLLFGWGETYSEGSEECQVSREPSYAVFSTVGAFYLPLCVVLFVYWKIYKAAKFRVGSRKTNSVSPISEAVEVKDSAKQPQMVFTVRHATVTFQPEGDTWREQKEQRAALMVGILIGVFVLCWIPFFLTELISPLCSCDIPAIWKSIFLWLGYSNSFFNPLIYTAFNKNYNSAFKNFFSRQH

Row | SMILES | % Agonist Activity ([1]; Conc 1 uM) [%] | % Antagonist Activity ([1]; Conc 1 uM) [%] | % Agonist Activity ([1]; Conc 10 uM) [%] | % Antagonist Activity ([1]; Conc 10 uM) [%] | % Agonist Activity ([2]; CXCR7, 1 uM) [%] | % Antagonist Activity ([2]; CXCR7, 1 uM) [%] | % Agonist Activity ([2]; CXCR7, 10 uM) [%] | % Antagonist Activity ([2]; CXCR7, 10 uM) [%] | % Agonist Activity ([3]; CHRM4, 1 uM) [%] | % Antagonist Activity ([3]; CHRM4, 1 uM) [%] | % Agonist Activity ([3]; CHRM4, 10 uM) [%] | % Antagonist Activity ([3]; CHRM4, 10 uM) [%] | % Agonist Activity ([4]; Conc 1 uM) [%] | % Antagonist Activity ([4]; Conc 1 uM) [%] | % Agonist Activity ([4]; Conc 10 uM) [%] | % Antagonist Activity ([4]; Conc 10 uM) [%] | % Antagonist Activity ([5]; 1 uM) [%] | % Antagonist Activity ([5]; 10 uM) [%] | % Agonist Activity ([6]; Conc 1 uM) [%] | % Antagonist Activity ([6]; Conc 1 uM) [%] | other results
1 | CNC(C)Cc1ccc2c(c1)OCO2 (centres unmarked) [MDMA, 3,4-Methylenedioxy methamphetamine, reference compound] | -2.5 | 1.6 | -3.2 | -2 | -1.3 | 5.3 | 0.5 | 8 | -1.8 | 32.8 | -3.2 | 26.3 | -0.7 | -15.5 | -1.1 | -17.6 | -16.4 | -6.4 | 1.5 | 6 | % Agonist Activity ([6]; Conc 10 uM): -0.3%; % Antagonist Activity ([6]; Conc 10 uM): 10.8%; % Agonist Activity ([7]; Conc 1 uM): 0.1%; % Antagonist Activity ([7]; Conc 1 uM): -3.8%; % Agonist Activity ([7]; Conc 10 uM): -1.9%; % Antagonist Activity ([7]; Conc 10 uM): 7.4%; % Agonist Activity ([8]; ADRB1, 1 uM): 0.6%; % Antagonist Activity ([8]; ADRB1, 1 uM): 2%; % Agonist Activity ([8]; ADRB1, 10 uM): 0.5%; % Antagonist Activity ([8]; ADRB1, 10 uM): 1.9%; % Agonist Activity ([9]; BDKRB2, 1 uM): 0.3%; % Antagonist Activity ([9]; BDKRB2, 1 uM): -6.6%; % Agonist Activity ([9]; BDKRB2, 10 uM): 0.1%; % Antagonist Activity ([9]; BDKRB2, 10 uM): -5.6%
2 | CNC(C)C(=O)c1ccc2c(c1)OCO2 (centres unmarked) [methylone] | -2.4 | 14.7 | -1.3 | 5.7 | -1.3 | 14.1 | -0.8 | 7.3 | -5.8 | 10.2 | -6.2 | 6.7 | -2 | -2.7 | -1.5 | 3.5 | 9.8 | 1.6 | -2.2 | 17.8 | % Agonist Activity ([6]; Conc 10 uM): -0.2%; % Antagonist Activity ([6]; Conc 10 uM): 15.8%; % Agonist Activity ([7]; Conc 1 uM): -2.6%; % Antagonist Activity ([7]; Conc 1 uM): 5.3%; % Agonist Activity ([7]; Conc 10 uM): -1.4%; % Antagonist Activity ([7]; Conc 10 uM): 2.5%; % Agonist Activity ([8]; ADRB1, 1 uM): -1.7%; % Antagonist Activity ([8]; ADRB1, 1 uM): -0.8%; % Agonist Activity ([8]; ADRB1, 10 uM): -1.4%; % Antagonist Activity ([8]; ADRB1, 10 uM): -1.2%; % Agonist Activity ([9]; BDKRB2, 1 uM): -3.6%; % Antagonist Activity ([9]; BDKRB2, 1 uM): 7.3%; % Agonist Activity ([9]; BDKRB2, 10 uM): -2.9%; % Antagonist Activity ([9]; BDKRB2, 10 uM): -2.6%
